Reference: ChEMBL document CHEMBL1151290, “Chemical constituents of Brazilian propolis and their cytotoxic activities” (1998)
≈ marks a conversion by molar mass, not a printed value.

Columns and labels:
[1] = Cytotoxicity against mouse 26-L5 cells after 24 hrs by MTT assay; assay type: functional; conditions: read-out: ED50 (the source's name)
HT-1080 = assay: Cytotoxicity against human HT1080 cells after 24 hrs by MTT assay; assay type: functional; conditions: HT-1080, 24 h, read-out: ED50 (the source's name)

SMILES | EC50 [1] [µg/mL] | EC50 (HT-1080) [µg/mL]
C=C(CO)[C@H]1Cc2cc(C(C)=O)c(O)cc2O1 | 57.1 (≈ 244 µM) | 45.5 (≈ 194 µM)
C=C1CC[C@@H]2[C@](C)(CCC[C@]2(C)C(=O)O)[C@H]1CC/C(C)=C/COC(C)=O | 73.3 (≈ 202 µM) | 70.1 (≈ 193 µM)
CC(C)=CCc1cc(/C=C/C(=O)O)cc2c1OC(C)(C)C(O)C2 (stereo unspecified) | 77.1 (≈ 244 µM) | 71.5 (≈ 226 µM)
COc1ccc([C@H]2Oc3cc(O)cc(O)c3C(=O)[C@@H]2O)cc1 | 71 (≈ 235 µM) | 27 (≈ 89.2 µM)
C=C1CC[C@@H]2[C@](C)(CCC[C@]2(C)C(=O)O)[C@H]1CC/C(C)=C/C(=O)OC | > 100 | 72.8 (≈ 209 µM)
C=C1CC[C@@H]2[C@](C)(CCC[C@]2(C)C(=O)O)[C@H]1CC/C(C)=C/C(=O)O [AGATHIC ACID] | 95.9 (≈ 287 µM) | 75.4 (≈ 226 µM)
CC(C)=CCc1cc(/C=C/C(=O)O)cc(CC=C(C)C)c1O [ARTEPILLIN] | 59.3 (≈ 197 µM) | 45.5 (≈ 151 µM)
CC(C)=CCc1cc(/C=C/C(=O)O)ccc1OC(=O)CCc1ccccc1 [BACCHARIN] | 77.9 (≈ 214 µM) | 25.9 (≈ 71.2 µM)
COc1ccc(-c2oc3cc(O)c(OC)c(O)c3c(=O)c2O)cc1 [BETULETOL] | 4.95 (≈ 15 µM) | 5.83 (≈ 17.7 µM)
COc1cc(/C=C/C=O)ccc1O [CONIFERYL ALDEHYDE] | 10.4 (≈ 58.6 µM) | 4.05 (≈ 22.7 µM)
CC(C)=CCc1cc(/C=C/C(=O)O)cc2c1OC(C)(C)C=C2 [CULIFOLIN] | 50.2 (≈ 168 µM) | 46.9 (≈ 157 µM)
C=C[C@](C)(O)CC[C@H]1C(=C)CC[C@@H]2[C@]1(C)CCC[C@]2(C)C(=O)O [CUPRESSICACID] | > 100 | 94.9 (≈ 296 µM)
COc1cc([C@H]2Oc3c(OC)cc(/C=C/COC(C)=O)cc3[C@@H]2COC(C)=O)ccc1O [DIMERICCONIFERYLACETATE] | 39.9 (≈ 90.1 µM) | 38.9 (≈ 88 µM)
COc1cccc2c1C(=O)c1c(O)c3c(c(O)c1C2=O)C[C@@](O)(C(=O)CO)C[C@@H]3O[C@H]1C[C@H](N)[C@H](O)[C@H](C)O1.Cl [DOXORUBICIN HYDROCHLORIDE] | 0.015 | 0.034
COc1ccc(-c2oc3cc(O)cc(O)c3c(=O)c2OC)cc1 [ERMANIN] | 7.64 (≈ 24.3 µM) | 2.3 (≈ 7.32 µM)
C=C1CC[C@@H]2[C@](C)(CCC[C@]2(C)C(=O)O)[C@H]1CC/C(C)=C/CO [ISOCUPRESSIC ACID] | 63.5 (≈ 198 µM) | 72.9 (≈ 228 µM)
COc1ccc(-c2oc3cc(O)cc(O)c3c(=O)c2O)cc1 [KAEMPFERIDE] | 5.95 (≈ 19.8 µM) | 2.91 (≈ 9.69 µM)
C=C(C)[C@H]1Cc2cc(C(C)=O)ccc2O1 [TREMETONE] | 58.1 (≈ 287 µM) | 57.4 (≈ 284 µM)
